One test has as its target T1, Recombinant human TG2 (Homo sapiens, UniProt P21980).
T1 construct: His-tag (C); made in house; host or cells: Sf+ express insect cells (pACAB3 vector)
T1 sequence (P21980 1-687): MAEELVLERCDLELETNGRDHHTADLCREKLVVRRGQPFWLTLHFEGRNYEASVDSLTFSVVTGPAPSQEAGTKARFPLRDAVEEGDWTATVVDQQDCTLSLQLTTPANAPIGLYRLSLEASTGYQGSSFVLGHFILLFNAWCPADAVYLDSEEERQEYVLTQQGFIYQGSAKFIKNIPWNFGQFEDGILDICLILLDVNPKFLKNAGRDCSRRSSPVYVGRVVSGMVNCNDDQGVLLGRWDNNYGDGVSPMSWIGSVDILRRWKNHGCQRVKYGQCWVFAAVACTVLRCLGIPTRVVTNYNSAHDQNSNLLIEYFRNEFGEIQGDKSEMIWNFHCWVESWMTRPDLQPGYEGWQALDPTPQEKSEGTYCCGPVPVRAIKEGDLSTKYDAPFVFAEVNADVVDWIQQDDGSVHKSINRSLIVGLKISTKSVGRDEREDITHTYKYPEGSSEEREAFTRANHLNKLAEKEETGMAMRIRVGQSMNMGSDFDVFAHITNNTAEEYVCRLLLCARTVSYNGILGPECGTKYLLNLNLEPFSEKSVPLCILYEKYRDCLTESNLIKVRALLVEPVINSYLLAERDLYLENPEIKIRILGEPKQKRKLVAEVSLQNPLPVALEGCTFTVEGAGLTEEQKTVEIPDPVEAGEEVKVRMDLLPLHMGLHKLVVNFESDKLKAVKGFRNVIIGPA
In words: TG2 enzyme kinetic assay, GDH-coupled ammonia release. The note with it: for Km / kcat / kcat/Km: GDH-coupled, MOPS pH 7.2, TG2 50 µg/mL, 37°C, A340; for Km / kcat: mean and SD from three independent experiments. The test is classed as biochemical. From the text: To test the influence of substrate affinity for TG2 on B‐cell uptake, we determined kinetic parameters for gluten peptides harboring the essential TG2 targeted glutamine residue within the DQ2.5‐glia‐α2, DQ2.5‐glia‐ω2, DQ2.5‐glia‐γ1, or DQ2.5‐glia‐γ3 T‐cell epitopes. To directly compare differences in TG2 affinity between the glutamines from the different peptides, we tested 9‐mer peptides harboring only one TG2 targeted glutamine residue.
Recombinant human TG2 with a C‐terminal His‐tag was expressed in Sf+ express insect cells. Briefly, human TGM2 was cloned into the pACAB3 vector, and protein was expressed for 3 days followed by lysis and purification by nickel‐nitrilotriacetic acid affinity chromatography as previously described.
Kinetic parameters for the 9‐mer peptides α2, ω2, γ1, and γ3 were measured using a coupled GDH catalyzed reaction assay performed in microtiter plates as previously described. Here, the following components were used: (1) a 5× stock MOPS buffer consisting of 1 M 3‐(N‐morpholino)propanesulfonic acid pH 7.2, 25 mM CaCl2, 5 mM ETDA, and 50 mM α‐ketoglutarate (Sigma Aldrich) in distilled water; (2) nicotinamide adenine dinucleotide hydrogen (NADH, Sigma–Aldrich); (3) GDH from beef liver (Roche); (4) gluten peptides; (5) recombinant TG2 solved in 1mM EDTA/Tris‐buffered saline. Components 1–4 were mixed in PCR‐strips (Axygen) to give final concentrations of 1x stock buffer, 1 mM NADH, 0.125 U/µL GDH, and various peptide concentrations. The mixture was preincubated in the dark for 15 min, and the reaction was started by the addition of recombinant TG2 (final concentration of 50 µg/mL) followed by transfer to a microtiter plate (Thermo Scientific). Absorbance (340 nm) was measured continuously for 50 min at 37°C using a Victor 3V Multi‐Label Microplate Reader (Perkin Elmer‐Wallac). Initial reaction velocities were calculated from the linear area of the absorbance curves by determining the change in absorbance over time compared to the change from an NADH standard curve. The Michaelis constants (K M) and turnover rates (k cat) were calculated using the k cat equation analysis tool in GraphPad Prism 8.3.0 (GraphPad Software).

Test [1] concerns the target T2, Recombinant human transglutaminase 2 (human, UniProt P21980 1-687).
T2 construct: human transglutaminase 2 (TGM2), cloned into the pACAB3 vector; Used enzymatically active with CaCl2; also called TG2; recombinant TG2
T2 sequence (looked up): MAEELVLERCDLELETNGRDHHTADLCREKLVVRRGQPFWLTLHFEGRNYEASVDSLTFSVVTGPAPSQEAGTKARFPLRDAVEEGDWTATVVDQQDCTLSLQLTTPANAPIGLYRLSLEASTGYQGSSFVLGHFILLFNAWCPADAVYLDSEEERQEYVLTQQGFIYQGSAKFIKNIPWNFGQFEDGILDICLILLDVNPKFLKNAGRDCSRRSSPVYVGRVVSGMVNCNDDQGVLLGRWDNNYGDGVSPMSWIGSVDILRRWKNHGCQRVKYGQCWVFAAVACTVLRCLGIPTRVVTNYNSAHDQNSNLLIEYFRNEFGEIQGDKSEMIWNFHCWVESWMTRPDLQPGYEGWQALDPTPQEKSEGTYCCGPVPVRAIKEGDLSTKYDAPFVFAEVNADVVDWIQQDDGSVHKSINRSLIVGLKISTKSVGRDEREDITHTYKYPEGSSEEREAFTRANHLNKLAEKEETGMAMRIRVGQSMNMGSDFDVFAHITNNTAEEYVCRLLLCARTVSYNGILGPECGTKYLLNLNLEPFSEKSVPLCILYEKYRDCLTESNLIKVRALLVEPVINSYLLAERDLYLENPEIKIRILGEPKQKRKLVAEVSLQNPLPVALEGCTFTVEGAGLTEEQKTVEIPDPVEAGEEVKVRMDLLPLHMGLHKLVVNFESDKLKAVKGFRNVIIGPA

Test [2] deals with T2, Recombinant human transglutaminase 2. In words: flow cytometry on cells; recombinant TG2 (3 µg/mL), 5 µM FITC peptide and 2 mM CaCl2 in RPMI with A20 cells expressing the TG2-specific BCR 679-14-E06, 37°C; stopped with EDTA, cells washed and fixed; cell-bound FITC peptide read as delta MFI against A20 cells with the non-TG2-specific BCR 693-2-F02. Conditions: both partners purified.

No end group written: not given here. *: point of attachment. FITC = O=C1OC2(c3ccc(O)cc3Oc3cc(O)ccc32)c2ccc(NC(=S)*)cc21; Ahx = NCCCCCC(=O)O

Take Ac‐QP Q QPYPQQ [γ3]: at Recombinant human TG2, the Km (in general, the substrate concentration at which the rate is half of its maximum) came out at 130 ± 30 µM and the kcat amounted to 23.2±1.0 min^–1.
Regarding Ac‐QQSFP Q QQR [γ1], on Recombinant human TG2, the kcat/Km is reported as 100 min^–1/mM, the Michaelis constant (Km) turned out to be 240 ± 20 µM and the kcat is reported as 24.0±0.7 min^–1. At Recombinant human TG2 (native 9-mer peptides, compared with the other 9-mers), the “affinity to TG2 (Km), in words” value was “twofold lower affinity to TG2”.
As for PQP Q LPYPQ [α2], at Recombinant human TG2, the kcat/Km amounted to 197 min^–1/mM, the Km is 130 ± 20 µM and the kcat turned out to be 25.7±0.8 min^–1.
The matching figures for PQP Q QPFPW [ω2]: 276 min^–1/mM, 100 ± 20 µM and 27.6±1.0 min^–1.
Ac-QQSFPQQQR: in test [1], the Km of TG2 turnover, GDH-coupled ammonia release assay (formation of the thioester intermediate complex), 37°C, pH 7.2 stood at 0.24 mM.
Still for that read-out and setting: as for PQPQLPYPQ [α2 9-mer gliadin peptide (native, harbouring the DQ2.5-glia-α2 epitope)], the figure is 0.13 mM.
For the molecule Ac-QPQQPYPQQ, in test [1], the Km of TG2 turnover, GDH-coupled ammonia release assay (formation of the thioester intermediate complex), 37°C, pH 7.2 stood at 0.13 mM.
Still for that read-out and setting: as for PQPQQPFPW [ω2 9-mer gliadin peptide (native, harbouring the DQ2.5-glia-ω2 epitope)], the figure is 0.1 mM.

B1: FITC-labeled γ3 9-mer gliadin peptide (native) (peptide)
peptide: {FITC-Ahx}-QPQQPYPQQ
notes: native 9-mer from γ-gliadin; The unlabelled peptide is N-terminally acetylated; also called FITC-γ3; source: synthetic peptide
With B1, the binding result in test [2] is “binds”.

B2: FITC-labeled ω2 9-mer gliadin peptide (native) (peptide)
peptide: {FITC-Ahx}-PQPQQPFPW
notes: also called FITC-ω2; source: synthetic peptide
As for B2, the binding result in test [2] is on record as “binds”.

B3: FITC-labeled α2 9-mer gliadin peptide (native) (peptide)
peptide: {FITC-Ahx}-PQPQLPYPQ
notes: also called FITC-α2; source: synthetic peptide
For the molecule B3, in test [2], the binding result is recorded as “binds”.

B4: FITC-labeled γ1 9-mer gliadin peptide (native) (peptide)
peptide: {FITC-Ahx}-QQSFPQQQR
notes: native 9-mer from γ-gliadin; The unlabelled peptide is N-terminally acetylated; also called FITC-γ1; source: synthetic peptide
On to B4, for which, in test [2], the binding result is “binds”.
